Earlier results as cited in US20230210830A1 (ALKEM LABORATORIES LIMITED, priority 2022, published 2023).

Legend:
[1] = Strongest Basic
[2] = humans
[3] = tested on: aneurysmal subarachnoid hemorrhage (aSAH); conditions: oral administration; patients after aSAH; Ehrlich et al. 2019

pKa [1]: 5.41
solubility in organic solvents (ethanol, polyethylene glycol 400, dimethyl sulfoxide (DMSO), and chloroform): soluble
solubility in water (water): insoluble
bioavailability [2]: 12%
t1/2 ([2]; after oral administration): 1.5 h
SMILES: COCCOC(=O)C1=C(C)NC(C)=C(C(=O)OC(C)C)C1c1cccc([N+](=O)[O-])c1 (stereo not drawn) [nimodipine, isopropyl 2-methoxyethyl 1,4-dihydro-2,6-dimethyl-4-(m-nitrophenyl)-3,5-pyridinedicarboxylate]
clinical outcome [3]: improved clinical outcome
